≈ marks a conversion by molar mass, not a printed value. Read-outs that look alike come from different tables or passages of the source.
Experiments:
Experiment in all cases: Antimicrobial susceptibility test of clinical isolated strains
Format in all cases: cell-based
[1] = system: Escherichia coli QY; conditions: for Antimicrobial susceptibility test result (category): according to CLSI 2015 guidelines
Protocol: (§1) Table S1. Antimicrobial susceptibility test of clinical isolated strains used in this study (MIC, μg/mL).
(§2) 1Antimicrobial susceptibility test results were determined according to CLSI 2015 guidelines, where "R" stands for drug resistance,
(§3) "I" stands for intermediate, "S" stands for susceptible. […]

[2] = system: Escherichia coli S1N1; conditions: for Antimicrobial susceptibility test result (category): according to CLSI 2015 guidelines
Protocol: as §1, §2, §3

[3] = system: Escherichia coli SN5; conditions: for Antimicrobial susceptibility test result (category): according to CLSI 2015 guidelines
Protocol: as §1, §2, §3

[4] = system: Escherichia coli w122; conditions: for Antimicrobial susceptibility test result (category): according to CLSI 2015 guidelines
Protocol: as §1, §2, §3

[5] = system: Escherichia coli w123; conditions: for Antimicrobial susceptibility test result (category): according to CLSI 2015 guidelines
Protocol: as §1, §2, §3

[6] = system: Methicillin-resistant Staphylococcus aureus HP; conditions: for MIC: Staphylococcus aureus, antibiotic susceptibility, CLSI 2015 guidelines; for Antimicrobial susceptibility test result (category): according to CLSI 2015 guidelines
Protocol: as §1, §2, §3

[7] = system: Shigella flexneri QY1; conditions: for Antimicrobial susceptibility test result (category): according to CLSI 2015 guidelines
Protocol: as §1, §2, §3

[8] = system: Escherichia coli w124; conditions: for Antimicrobial susceptibility test result (category): according to CLSI 2015 guidelines
Source text: as §1, §3

[9] = system: Escherichia coli w136; conditions: for Antimicrobial susceptibility test result (category): according to CLSI 2015 guidelines
Source text: as §1, §3

[10] = Escherichia coli, antibiotic susceptibility, CLSI 2015 guidelines, read-out: MIC
[11] = Escherichia coli, S1N1, antibiotic susceptibility, CLSI 2015 guidelines, read-out: MIC
[12] = Escherichia coli, SN5, antibiotic susceptibility, CLSI 2015 guidelines, read-out: MIC
[13] = Escherichia coli, W122, antibiotic susceptibility, CLSI 2015 guidelines, read-out: MIC
[14] = Escherichia coli, W123, antibiotic susceptibility, CLSI 2015 guidelines, read-out: MIC
[15] = Escherichia coli, W124, antibiotic susceptibility, CLSI 2015 guidelines, read-out: MIC
[16] = Escherichia coli, W136, antibiotic susceptibility, CLSI 2015 guidelines, read-out: MIC
[17] = antibiotic susceptibility, CLSI 2015 guidelines

Compound | MIC [1, 10] [mg/L] | Antimicrobial susceptibility test result (category) [1] | MIC [2, 11] [mg/L] | Antimicrobial susceptibility test result (category) [2] | MIC [3, 12] [mg/L] | Antimicrobial susceptibility test result (category) [3] | MIC [4, 13] [mg/L] | Antimicrobial susceptibility test result (category) [4] | MIC [5, 14] [mg/L] | Antimicrobial susceptibility test result (category) [5] | MIC [6] [mg/L] | Antimicrobial susceptibility test result (category) [6] | MIC ([7]; Shigella flexneri, QY1) [mg/L] | Antimicrobial susceptibility test result (category) [7] | MIC [8, 15] [mg/L] | Antimicrobial susceptibility test result (category) [8] | MIC [9, 16] [mg/L] | Antimicrobial susceptibility test result (category) [9] | further results
CC[C@H]1OC(=O)[C@H](C)[C@@H](O[C@H]2C[C@@](C)(OC)[C@@H](O)[C@H](C)O2)[C@H](C)[C@@H](O[C@@H]2O[C@H](C)C[C@H](N(C)C)[C@H]2O)[C@](C)(O)C[C@@H](C)CN(C)[C@H](C)[C@@H](O)[C@]1(C)O [Azithromycin] | 8 (≈ 10.7 µM) | S | 4 (≈ 5.34 µM) | S | 4 (≈ 5.34 µM) | S | 4 (≈ 5.34 µM) | S | 4 (≈ 5.34 µM) | S | 1 (≈ 1.34 µM) | S | 64 (≈ 85.4 µM) | R | 4 (≈ 5.34 µM) | S | 2 (≈ 2.67 µM) | S | –
CO/N=C(\C(=O)N[C@@H]1C(=O)N2C(C(=O)O)=C(CSc3nc(=O)c(=O)[nH]n3C)CS[C@H]12)c1csc(N)n1 [Ceftriaxone] | 64 (≈ 115 µM) | R | 16 (≈ 28.9 µM) | R | 16 (≈ 28.9 µM) | R | 32 (≈ 57.7 µM) | R | 32 (≈ 57.7 µM) | R | – | – | 4 (≈ 7.21 µM) | R | 4 (≈ 7.21 µM) | R | 0.06 (≈ 0.108 µM) | S | –
CS(=O)(=O)c1ccc([C@@H](O)[C@@H](CF)NC(=O)C(Cl)Cl)cc1 [Florfenicol] | 128 (≈ 357 µM) | R | 2 (≈ 5.58 µM) | S | 4 (≈ 11.2 µM) | S | 128 (≈ 357 µM) | R | 128 (≈ 357 µM) | R | – | – | 2 (≈ 5.58 µM) | S | 128 (≈ 357 µM) | R | 128 (≈ 357 µM) | R | –
CNC(C)C1CCC(N)C(OC2C(N)CC(N)C(OC3OCC(C)(O)C(NC)C3O)C2O)O1 (stereo not shown) [Gentamicin] | > 512 | R | < 0.03 | S | < 0.03 | S | 1 (≈ 2.09 µM) | S | 1 (≈ 2.09 µM) | S | 16 (≈ 33.5 µM) | R | 1 (≈ 2.09 µM) | S | 8 (≈ 16.8 µM) | I | 8 (≈ 16.8 µM) | I | –
CO[C@H]1/C=C/O[C@@]2(C)Oc3c(C)c(O)c4c(O)c(c(/C=N/N5CCN(C)CC5)c(O)c4c3C2=O)NC(=O)/C(C)=C\C=C\[C@H](C)[C@H](O)[C@@H](C)[C@@H](O)[C@@H](C)[C@H](OC(C)=O)[C@@H]1C [Rifampicin] | 4 (≈ 4.86 µM) | S | 2 (≈ 2.43 µM) | S | 1 (≈ 1.22 µM) | S | 4 (≈ 4.86 µM) | S | 4 (≈ 4.86 µM) | S | 8 (≈ 9.72 µM) | R | 2 (≈ 2.43 µM) | S | 4 (≈ 4.86 µM) | S | 64 (≈ 77.8 µM) | R | –
Cc1noc(NS(=O)(=O)c2ccc(N)cc2)c1C [Sulfafurazole] | – | R | – | R | – | R | – | R | – | R | – | – | > 512 | R | – | R | – | R | MIC ([1]; Escherichia coli): 512 mg/L (≈ 1920 µM); MIC ([2]; Escherichia coli, S1N1): 512 mg/L (≈ 1920 µM); MIC ([3]; Escherichia coli, SN5): > 512 mg/L; MIC ([4]; Escherichia coli, W122): 512 mg/L (≈ 1920 µM); MIC ([5]; Escherichia coli, W123): 512 mg/L (≈ 1920 µM); MIC ([8]; Escherichia coli, W124): 512 mg/L (≈ 1920 µM); MIC ([9]; Escherichia coli, W136): 512 mg/L (≈ 1920 µM)
CN(C)[C@@H]1C(O)=C(C(N)=O)C(=O)[C@@]2(O)C(O)=C3C(=O)c4c(O)cccc4[C@@](C)(O)[C@H]3C[C@@H]12 [Tetracycline] | – | R | 32 (≈ 72 µM) | R | 64 (≈ 144 µM) | R | 32 (≈ 72 µM) | R | 32 (≈ 72 µM) | R | 32 (≈ 72 µM) | R | 32 (≈ 72 µM) | R | – | R | – | R | –
COc1cccc(OC)c1C(=O)N[C@@H]1C(=O)N2[C@@H]1SC(C)(C)[C@@H]2C(=O)O [methicillin] | – | – | 128 (≈ 336 µM) | R | 64 (≈ 168 µM) | R | 64 (≈ 168 µM) | R | 128 (≈ 336 µM) | R | 128 (≈ 336 µM) | R | 32 (≈ 84.1 µM) | R | – | – | – | – | –
PolymixinB | – | S | – | S | – | S | – | S | – | S | – | – | – | S | – | S | – | R | MIC [1, 17]: 1 mg/L; MIC [2, 17]: 0.5 mg/L; MIC [3, 17]: 0.5 mg/L; MIC [4, 17]: 0.5 mg/L; MIC [5, 17]: 0.5 mg/L; MIC [7, 17]: 0.5 mg/L; MIC [8, 17]: 0.5 mg/L; MIC [9, 17]: 8 mg/L

From publication PMC8698302, “An Antibacterial Peptide with High Resistance to Trypsin Obtained by Substituting D-Amino Acids for Trypsin Cleavage Sites” (Antibiotics, 2021)
